Test results: paper PMC8427973, “Regulation of the HTRA2 Protease Activity by an Inhibitory Antibody-Derived Peptide Ligand and the Influence on HTRA2-Specific Protein Interaction Networks in Retinal Tissues” (Biomedicines, 2021)

Columns and labels:
[1] = tested on: recombinant 6xHis-tag HTRA2 and its protein interaction partners in homogenized porcine retina; test: Co-immunoprecipitation (Co-IP) of HTRA2 protein interaction partners, quantitative LC-MS/MS (iBAQ, volcano plot vs CTRL beads); design: species or system house swine (Sus scrofa); conditions: 2 µg HTRA2 + 10 µg compound, n = 3, vs CTRL beads
Method: The retina extraction and homogenization were performed as already described in previous publications. The use of animal by-products of house swine for scientific research purposes was approved by the Kreisverwaltung Mainz-Bingen in Germany (Identification Code: DE 07 315 0006 21, approved on 13 January 2014). In brief, retinal tissues were extracted from freshly removed porcine eye bulbs (house swine, Sus scrofa domestica Linnaeus, n = 30) provided by the local slaughterhouses (Landmetzgerei Harth, Stadecken-Elsheim, Germany). Afterwards, the retinal tissues were homogenized in 2 mL screw cap microtubes filled with 1.4/2.8 mm ceramic beads and 1 mL Tissue Protein Extraction Reagent (T-PER, Thermo Fisher Scientific, Rockford, IL, USA) using a Percellys® 24 homogenizer (VWR International GmbH, Darmstadt, Germany). The homogenized retinal samples were then centrifuged at 14,000× g for 15 min at 4 °C. The protein-containing supernatant was exchanged in a 100 µL phosphate-buffered saline (PBS) using a 3 kDa Amicon® filtration unit (Millipore, Billerica, MA, USA) and, prior to this, was extensively washed in order to completely remove traces of the T-PER buffer. Afterwards, the samples were pooled and the protein concentration was determined using a Pierce Bicinchoninic Acid (BCA) Protein Assay Kit (Thermo Fisher Scientific, Rockford, IL, USA) according to the manufacturer’s protocol, which provided 5 mg aliquots for further analysis.
The recombinant protein HTRA2 with a C-terminal 6xHis-tag motif (Novoprotein Scientific INC., Summit, NJ, USA) and 40 μL HisPurTM Ni-NTA magnetic beads (Thermo Fisher Scientific, Rockford, IL, USA) were spiked into 5 mg homogenized porcine retina. The experiment comprised of four groups: control homogenate (CTRL group), homogenate with 2 μg recombinant HTRA2 (HTRA2 group), homogenate with 2 μg recombinant HTRA2 and 10 μg UCF-101 (UCF-101 group), and homogenate with 2 μg recombinant HTRA2 and 10 μg synthetic CDR peptide (CDR group). The Co-IP of the recombinant HTRA2 and the enrichment of the respective interaction partners was performed with three independent biological replicates for each group (CTRL, HTRA2, UCF-101, and CDR group). After incubation at 4 °C overnight, the 6xHis-tagged protein HTRA2 with the bounded protein interaction partners (co-immunoprecipitation) was isolated with the previously added HisPurTM Ni-NTA magnetic beads (Thermo Fisher Scientific, Rockford, IL, USA) using a magnetic stand. Each bead group was washed twice with 400 μL PBS and the bounded HTRA2 including the protein interaction partners were eluted by pH shift. The protein concentration of each eluate fraction was determined as described above. Afterwards, 50 μg of each eluate fraction was evaporated using a speed vacuum concentrator (SpeedVac) (Eppendorf, Hamburg, Germany) for 45 min at 30 °C and was stored afterwards at −20 °C.
The protein eluate fractions of each group (50 μg; n = 3 biological replicates per group) were separated by 1D SDS PAGE on 10-well NuPAGE® 12% Bis-Tris gels using NuPAGE™ MOPS SDS Running Buffer 20X (Thermo Fisher Scientific, Rockford, IL, USA). The 1D SDS PAGE was performed with the XCell SureLock^TM Mini-Cell Electrophoresis System (Thermo Fisher Scientific, Rockford, IL, USA) under denatured and reduced conditions, as already described in previous publications. The protein separation was performed for 2 h at 4 °C using 150 V, and then the gels were stained with the Novex Colloidal Blue Staining Kit (Thermo Fisher Scientific, Rockford, IL, USA) according to the manufacturer’s protocol. The next day, the gels were destained overnight and scanned using a DGP-9042 scanner (Brother Industries, Nagoya, Japan) at 600 dpi. In-gel trypsin digestion was performed as already described in previous publications. In brief, each protein lane was divided into 17 slices and was subsequently cut into small pieces. […]

HTRA2 = conditions: immunoprecipitation experiments; cited from earlier work
Text: The mitochondrial serine protease HTRA2 has many versatile biological functions ranging from being an important regulator of apoptosis to being an essential component for neuronal cell survival and mitochondrial homeostasis. Loss of HTRA2 protease function is known to cause neurodegeneration, whereas overactivation of its proteolytic function is associated with cell death and inflammation.

[2] = tested on: retinal ganglion cells (RGCs); conditions: cited from earlier work
Text: However, in a recent study of our group we identified the protein HTRA2 as a high-affinity interaction partner of the synthetic peptide […] [16]. Thereby, this synthetic peptide encodes a complementary-determining region 1 (CDR1) of polyclonal antibody molecules, which was originally identified as a potential biomarker candidate in primary-open angle glaucoma (POAG) patients.

Sequence: ASGYTFTNYGLSWVR [CDR, synthetic peptide encoding a complementary-determining region 1 (CDR1) of polyclonal antibody molecules]
- FGF2 (Fibroblast growth factor 2) as significant interaction partner of HTRA2 ([1]; HTRA2 alone: -): √ (Proteins fulfilled filtering criteria (p < 0.01; log2 fold change > 1.5))
- FTH1 (Ferritin heavy chain) as significant interaction partner of HTRA2 ([1]; HTRA2 alone: -): √ (Proteins fulfilled filtering criteria (p < 0.01; log2 fold change > 1.5))
- GTF2F2 (General transcription factor IIF subunit 2) as significant interaction partner of HTRA2 ([1]; HTRA2 alone: -): - (Proteins failed to fulfill the filtering criteria (p > 0.01; log2 fold change < 1.5))
- NAPG (Gamma-soluble NSF attachment protein) as significant interaction partner of HTRA2 ([1]; HTRA2 alone: -): √ (Proteins fulfilled filtering criteria (p < 0.01; log2 fold change > 1.5))
- PDZD11 (PDZ domain-containing protein 11) as significant interaction partner of HTRA2 ([1]; HTRA2 alone: -): √ (Proteins fulfilled filtering criteria (p < 0.01; log2 fold change > 1.5))
- PGRMC1 (Membrane-associated progesterone receptor component 1) as significant interaction partner of HTRA2 ([1]; HTRA2 alone: -): - (Proteins failed to fulfill the filtering criteria (p > 0.01; log2 fold change < 1.5))
- PLRG1 (Pleiotropic regulator 1) as significant interaction partner of HTRA2 ([1]; HTRA2 alone: -): √ (Proteins fulfilled filtering criteria (p < 0.01; log2 fold change > 1.5))
- POLR2E (DNA-directed RNA polymerases I, II, and III subunit RPABC1) as significant interaction partner of HTRA2 ([1]; HTRA2 alone: -): √ (Proteins fulfilled filtering criteria (p < 0.01; log2 fold change > 1.5))
- PPA1 (Inorganic pyrophosphatase) as significant interaction partner of HTRA2 ([1]; HTRA2 alone: -): - (Proteins failed to fulfill the filtering criteria (p > 0.01; log2 fold change < 1.5))
- SFRP1 (Secreted frizzled-related protein 1) as significant interaction partner of HTRA2 ([1]; HTRA2 alone: -): √ (Proteins fulfilled filtering criteria (p < 0.01; log2 fold change > 1.5))
- TUBA1C (Tubulin alpha-1C chain) as significant interaction partner of HTRA2 ([1]; HTRA2 alone: -): √ (Proteins fulfilled filtering criteria (p < 0.01; log2 fold change > 1.5))
- UBE2N (Ubiquitin-conjugating enzyme E2 N) as significant interaction partner of HTRA2 ([1]; HTRA2 alone: -): √ (Proteins fulfilled filtering criteria (p < 0.01; log2 fold change > 1.5))
- CDC42 (Cell division control protein 42 homolog) as significant interaction partner of HTRA2 ([1]; HTRA2 alone: n.d.): √ (Proteins fulfilled filtering criteria (p < 0.01; log2 fold change > 1.5))
- COPE (Coatomer subunit epsilon) as significant interaction partner of HTRA2 ([1]; HTRA2 alone: n.d.): - (Proteins failed to fulfill the filtering criteria (p > 0.01; log2 fold change < 1.5))
- MRPL2 (39S ribosomal protein L2, mitochondrial) as significant interaction partner of HTRA2 ([1]; HTRA2 alone: n.d.): √ (Proteins fulfilled filtering criteria (p < 0.01; log2 fold change > 1.5))
- SNX3 (Sorting nexin-3) as significant interaction partner of HTRA2 ([1]; HTRA2 alone: n.d.): √ (Proteins fulfilled filtering criteria (p < 0.01; log2 fold change > 1.5))
- SOWAHA (Ankyrin repeat domain-containing protein SOWAHA) as significant interaction partner of HTRA2 ([1]; HTRA2 alone: n.d.): √ (Proteins fulfilled filtering criteria (p < 0.01; log2 fold change > 1.5))
- TIMM13 (Mitochondrial import inner membrane translocase subunit Tim13) as significant interaction partner of HTRA2 ([1]; HTRA2 alone: n.d.): √ (Proteins fulfilled filtering criteria (p < 0.01; log2 fold change > 1.5))
- TUBB8 (Tubulin beta-8 chain) as significant interaction partner of HTRA2 ([1]; HTRA2 alone: n.d.): √ (Proteins fulfilled filtering criteria (p < 0.01; log2 fold change > 1.5))
- AGPS (Alkyldihydroxyacetonephosphate synthase, peroxisomal) as significant interaction partner of HTRA2 ([1]; HTRA2 alone: √): √ (Proteins fulfilled filtering criteria (p < 0.01; log2 fold change > 1.5))
- ANK2 (Ankyrin-2) as significant interaction partner of HTRA2 ([1]; HTRA2 alone: √): - (Proteins failed to fulfill the filtering criteria (p > 0.01; log2 fold change < 1.5))
- AP2A1 (AP-2 complex subunit alpha-1) as significant interaction partner of HTRA2 ([1]; HTRA2 alone: √): - (Proteins failed to fulfill the filtering criteria (p > 0.01; log2 fold change < 1.5))
- AP3D1 (AP-3 complex subunit delta-1) as significant interaction partner of HTRA2 ([1]; HTRA2 alone: √): - (Proteins failed to fulfill the filtering criteria (p > 0.01; log2 fold change < 1.5))
- AUH (Methylglutaconyl-CoA hydratase, mitochondrial) as significant interaction partner of HTRA2 ([1]; HTRA2 alone: √): √ (Proteins fulfilled filtering criteria (p < 0.01; log2 fold change > 1.5))
- CS (Citrate synthase, mitochondrial) as significant interaction partner of HTRA2 ([1]; HTRA2 alone: √): - (Proteins failed to fulfill the filtering criteria (p > 0.01; log2 fold change < 1.5))
- CSTB (Cystatin-B) as significant interaction partner of HTRA2 ([1]; HTRA2 alone: √): √ (Proteins fulfilled filtering criteria (p < 0.01; log2 fold change > 1.5))
- DNAJA3 (DnaJ homolog subfamily A member 3, mitochondrial) as significant interaction partner of HTRA2 ([1]; HTRA2 alone: √): - (Proteins failed to fulfill the filtering criteria (p > 0.01; log2 fold change < 1.5))
- DTD1 (D-aminoacyl-tRNA deacylase 1) as significant interaction partner of HTRA2 ([1]; HTRA2 alone: √): - (Proteins failed to fulfill the filtering criteria (p > 0.01; log2 fold change < 1.5))
- EIF2S3 (Eukaryotic translation initiation factor 2 subunit 3) as significant interaction partner of HTRA2 ([1]; HTRA2 alone: √): - (Proteins failed to fulfill the filtering criteria (p > 0.01; log2 fold change < 1.5))
- FAM30A (Putative uncharacterized protein FAM30A) as significant interaction partner of HTRA2 ([1]; HTRA2 alone: √): - (Proteins failed to fulfill the filtering criteria (p > 0.01; log2 fold change < 1.5))
- FLNA (Filamin-A) as significant interaction partner of HTRA2 ([1]; HTRA2 alone: √): - (Proteins failed to fulfill the filtering criteria (p > 0.01; log2 fold change < 1.5))
- GDI1 (Rab GDP dissociation inhibitor alpha) as significant interaction partner of HTRA2 ([1]; HTRA2 alone: √): √ (Proteins fulfilled filtering criteria (p < 0.01; log2 fold change > 1.5))
- GLO1 (Lactoylglutathione lyase) as significant interaction partner of HTRA2 ([1]; HTRA2 alone: √): √ (Proteins fulfilled filtering criteria (p < 0.01; log2 fold change > 1.5))
- GNL1 (Guanine nucleotide-binding protein-like 1) as significant interaction partner of HTRA2 ([1]; HTRA2 alone: √): - (Proteins failed to fulfill the filtering criteria (p > 0.01; log2 fold change < 1.5))
- HAGH (Hydroxyacylglutathione hydrolase, mitochondrial) as significant interaction partner of HTRA2 ([1]; HTRA2 alone: √): - (Proteins failed to fulfill the filtering criteria (p > 0.01; log2 fold change < 1.5))
- HTRA2 (Serine protease HTRA2, mitochondrial; target protein) enriched ([1]; HTRA2 alone: √): √ (Proteins fulfilled filtering criteria (p < 0.01; log2 fold change > 1.5))
- HYOU1 (Hypoxia up-regulated protein 1) as significant interaction partner of HTRA2 ([1]; HTRA2 alone: √): - (Proteins failed to fulfill the filtering criteria (p > 0.01; log2 fold change < 1.5))
- MCTS1 (Malignant T-cell-amplified sequence 1) as significant interaction partner of HTRA2 ([1]; HTRA2 alone: √): √ (Proteins fulfilled filtering criteria (p < 0.01; log2 fold change > 1.5))
- ME2 (NAD-dependent malic enzyme, mitochondrial) as significant interaction partner of HTRA2 ([1]; HTRA2 alone: √): - (Proteins failed to fulfill the filtering criteria (p > 0.01; log2 fold change < 1.5))
- NCKAP1 (Nck-associated protein 1) as significant interaction partner of HTRA2 ([1]; HTRA2 alone: √): - (Proteins failed to fulfill the filtering criteria (p > 0.01; log2 fold change < 1.5))
- PACS1 (Phosphofurin acidic cluster sorting protein 1) as significant interaction partner of HTRA2 ([1]; HTRA2 alone: √): - (Proteins failed to fulfill the filtering criteria (p > 0.01; log2 fold change < 1.5))
- POTEE (POTE ankyrin domain family member E) as significant interaction partner of HTRA2 ([1]; HTRA2 alone: √): - (Proteins failed to fulfill the filtering criteria (p > 0.01; log2 fold change < 1.5))
- PSMC1 (26S proteasome regulatory subunit 4) as significant interaction partner of HTRA2 ([1]; HTRA2 alone: √): - (Proteins failed to fulfill the filtering criteria (p > 0.01; log2 fold change < 1.5))
- PTGES3 (Prostaglandin E synthase 3) as significant interaction partner of HTRA2 ([1]; HTRA2 alone: √): √ (Proteins fulfilled filtering criteria (p < 0.01; log2 fold change > 1.5))
- RPS12 (40S ribosomal protein S12) as significant interaction partner of HTRA2 ([1]; HTRA2 alone: √): - (Proteins failed to fulfill the filtering criteria (p > 0.01; log2 fold change < 1.5))
- SPTBN1 (Spectrin beta chain, non-erythrocytic 1) as significant interaction partner of HTRA2 ([1]; HTRA2 alone: √): - (Proteins failed to fulfill the filtering criteria (p > 0.01; log2 fold change < 1.5))
- UBE2V1 (Ubiquitin-conjugating enzyme E2 variant 1) as significant interaction partner of HTRA2 ([1]; HTRA2 alone: √): √ (Proteins fulfilled filtering criteria (p < 0.01; log2 fold change > 1.5))
- Affinity for the target protein HTRA2 (HTRA2): high affinity
- Effect on retinal ganglion cells (RGCs) in an organ culture model for glaucoma [2]: neuroprotective effects
